Common to all, as to type: cell-based, human
In one data set the test system is adult stem cell spheres. In words: Formation of adult stem cell (MSC) spheres with GSK3 or PI3K inhibitor. To be noted: after 7 days; BIO 0.2 μM to 0.5 μM; LY294002 30 μM to 50 μM. As to the method:
To form adult stem cell spheres with preventing the adhesion of cells to the bottom of plastic container, 100 mm culture plate coated with 1% agarose (Nunc, Rochester, N.Y.) was used, and 1.5×10^5 adult stem cells were incubated in the growth medium as described in Preparation 1. A total of 15,000 cells were seeded per 1 ml of the medium, and adult stem cell spheres were incubated for one week. To prevent cell loss the culture solution was partially replaced only two times per week. After 7 days, adult stem cell spheres were collected by means of 40 μm pore cell strainer. Adult stem cell spheres as collected were washed with PBS, and gently centrifuged (800 rpm/5 min) for supplementary experiments.
To identify the influence of GSK3 and PI3K signal transduction on sphere formation the inhibitory experiment was practiced. After treatment with BIO (Sigma-Aldrich) as GSK3 inhibitor at the concentration of 0 μM, 0.2 μM, or 0.5 μM, or with […] (Calbiochem, La Jolla, Calif.) as PI3K inhibitor at the concentration of 0 μM, 10 μM, 30 μM, or 50 μM the formation of adult stem cell spheres was observed. The number of adult stem cell spheres was counted after 7 days from culture.

Data set [1] relates to PI3K/AKT/GSK3β. Description: Western blot for PI3K, AKT, GSK3β phosphorylation in MSC spheres. Conditions: spheres treated with 0.2 μM BIO, compared to monolayer-incubated adult stem cells. As to the method: FIG. 6(A) is the result of Western blot analysis conducted after 7 days from sphere culture, wherein MSC spheres were collected by means of 40 μm strainer and then washed two times, and the phosphorylation levels of PI3K and its sequential downstream effectors, AKT and GSK3β were analyzed in monolayer cells, spheres, spheres treated with 0.2 μM BIO, and spheres treated with 30 μM LY294002.
(§1) Western blot analysis for PI3K, AKT, and GSK3β was conducted according to the reference (Park et al., 2009). Adult stem cells incubated as monolayer or spheres were crushed in 50 mM Tris-HCl buffer comprising 1% Triton X-100 to which 1 mM phenylmethylsulfonyl fluoride, 1 mM aprotinin, 1 mM leupeptin, 1 mM antipain, and 0.1 mM sodium orthovanadate were added, 137 mM NaCl, 2 mM EDTA, and 0.1% SDS. The content of protein was determined using DC assay kit (Bio-Rad, USA), and then SDS-PAGE was conducted by loading a given amount of protein on 0-15% polyacrylamide gel. Then protein was transferred to nitrocellulose membrane at 50 V, 350 mA for 5 hours. All of antibodies were used according to the manufacturer's instructions, and the protein bands were identified using enhanced chemiluminescence detection kit (Amersham Pharmacia Biotech, Buckinghamshire, UK).

The subject of data set [2] is adult stem cells overexpressing CD49f. In words: MTT cell proliferation assay in CD49f-overexpressing adult stem cells. Conditions: 24 and 48 hours. As to the method: (§2) In order to further confirm whether CD49f genetic expression is dependent on the activation of PI3K/AKT/GSK3 pathway, adult stem cells overexpressing CD49f were treated with LY294002 or BIO for 24 hours and 48 hours.
The proliferation potential of cells was measured by MTT assay analysis based on the ability of living cells to convert tetrazolium salt into purple formazan. Adult stem cells were transduced with either control vector or CD49f expression vector. After 24 hours from transduction, cells were seeded onto 24-well plate, and incubated in medium comprising LY294002 and BIO. After culture for 24 hours and 48 hours, […] of MTT stock solution (5 mg/ml, Sigma) was added to each well, and then further incubated at 37° C. for 4 hours. After removing the supernatant, […] of DMSO was added to each well so that insoluble purple formazan crystals can be dissolved […]. Then, cells were transferred to 96-well microplate and then the absorbance was measured using EL800 microplate reader (BIO-TEK Instruments, Winooski, Vt., U.S.A.) at wavelength of 540 nm. All of measurements were repeated three times.

Data set [3] has the same test system. In words: Sphere formation assay in CD49f-overexpressing adult stem cells. The procedure: (§3) Cells were seeded onto 24-well plate, and then the optical density was measured after 24 hour and 48 hours (*, P<0.05; **, P<0.01). FIG. 9(B) is the result of measuring a size of spheres in the presence or absence of CD49f, LY294002, BIO (*, P<0.05; **, P<0.01). FIG. 9(C) is the result of Western blot analysis for PI3K/AKT/GSK3β. CD49f expression vector was transduced into cells, which were than treated with LY294002 and BIO. Using phospho-specific antibodies for respective proteins the phosphorylation level of protein kinases was identified via Western blotting. 20 μg of protein lysate was loaded onto each well.
as §2

Data set [4] deals with PI3K/AKT/GSK3β. Description: Western blot for PI3K/AKT/GSK3β in CD49f-overexpressing adult stem cells. As to the method:
as §3
as §1, with “All of antibodies were used according to the manufacturer's instructions, and the protein bands were identified using enhanced chemiluminescence detection kit (Amersham Pharmacia Biotech, Buckinghamshire, UK).” left out

A further data set deals with CD49f-overexpressed MSCs. In words: Osteogenic differentiation of CD49f-overexpressed adult stem cells (Alizarin Red S, RT-PCR). The procedure:
(§4) Osteogenesis was confirmed through Alizarin Red S staining.
The monolayer-incubated cells (Comparative Example 1) and sphere-derived cells (Example 1) were incubated in DMEM containing 5% FBS, 50 μM L-ascorbate-2-phosphate, 0.1 μM dexamethasone and […] glycerolphosphate to induce differentiation into bone tissue. The cells were stained with Alizarin Red dye specific to calcium, and then the dye was extracted by treating with 100 mM cetylpyridinium chloride (Sigma-Aldrich) for one hour and used for quantitative analysis. The emission of solubilized Alizarin Red S was measured by means of spectrophotometer at 570 nm.
(§5) Subsequently, whether in differentiation of adult stem cells into osteocytes and adipocytes CD49f expression can be regulated by PI3K/AKT/GSK3 pathway was identified. CD49f-overexpressed adult stem cells were treated with LY294002 and BIO, and then incubated in osteocyte and adipocyte media, respectively, to induce differentiation into osteogenic and adipogenic lineages.

Data set [5] relates to CD49f-overexpressed cells. In words: Adipogenic differentiation of CD49f-overexpressed adult stem cells (Oil Red O, RT-PCR). The procedure:
as §4
The cell culture of monolayer-incubated cells (Comparative Example 1) and sphere-derived cells (Example 1) was conducted using DMEM containing 5% FBS, 1 μM dexamethasone, 10 μM insulin, 200 μM indomethacin, and 0.5 mM isobutylmethylxanthine to induce differentiation into adipose tissue.
To determine the differentiation degree from fat accumulation present in cells, incubated cells were stained with Oil Red 0, and then Oil Red ° penetrated into cells was extracted with 100% isopropyl alcohol, and quantified with ELISA plate reader (EL800, Bio-Tek Instruments, USA) at OD 500. In addition, using RT-PCR the expression of C/EBP β, AP2, and PPARγ as adipose tissue-specific genes was examined.
as §5

The next data set has as its system adult stem cells. Description: Survival of adult stem cells treated with BIO. To be noted: BIO treatment.

Entries after “also recorded” stand apart in the source; their conditions may differ.

Regarding `O=C1Nc2cc(Br)ccc2/C1=C1/Nc2ccccc2/C1=N\O` [BIO], in the data set with adult stem cell spheres, the “number of adult stem cell spheres formed” value is given as “significantly increased” and the “size of adult stem cell spheres” value is given as “significantly increased”. The “phospho-PI3K and phospho-AKT” value in the data set with PI3K/AKT/GSK3β [1] is recorded as “increased”. Besides, the “growth rate / cell proliferation (MTT)” value in data set [2] was “higher”. The “number of adult stem cell spheres / sphere formation” value in data set [3] is “increased”. Besides, in the data set with PI3K/AKT/GSK3β [4], the AKT phosphorylation entry is reported as “induced phosphorylation” and the GSK3 phosphorylation result is on record as “induced phosphorylation”. The “propensity of adult stem cells to differentiate into osteocytes” value in the data set with CD49f-overexpressed MSCs (BIO treatment) is “increases”. The “mineral accumulation (Alizarin Red S staining)” value in the data set on CD49f-overexpressed MSCs (CD49f-overexpressed MSCs, osteocyte induction) is recorded as “further increased”. Besides, the “mRNA levels of osteocyte-specific markers (BGLAP, VDR, MSX2, OSTEOCALCIN, RUNX2)” value in the data set with CD49f-overexpressed MSCs (RT-PCR, CD49f-overexpressed adult stem cells) was “further increased; also recorded: upregulated”. The “mRNA levels of adipocyte transcription factors (C/EBP β, aP2, PPARγ, LEPTIN)” value in data set [5] (RT-PCR) is reported as “inhibited; also recorded: significantly reduced”. Besides, in data set [5] (compared to untreated control group), the “lipid accumulation (Oil Red O staining)” value is given as “inhibited”. Besides, in the data set on adult stem cells, the “survival potential of adult stem cells” value is on record as “does not adversely affect”.

The record behind these values is patent US9139812B2, “CD49F promoting proliferation, multipotency and reprogramming of adult stem cells through PI3K/AKT/GSK3 pathway” (KANG STEM HOLDINGS CO., LTD, priority 2010, dated 2015).
